Results published in the NIST ThermoML archive (doi:10.1016/j.jct.2011.06.019).

Experiments:
[1] = molar heat capacity at constant pressure; xn = mol fraction of the nth substance listed; settings: 313.15 K, Liquid, Flow calorimetry
[2] = molar heat capacity at constant pressure; settings: Liquid, Flow calorimetry

CCO [ethanol] + Cc1ccccc1
[1], x2 = 0
Settings | molar heat capacity at constant pressure [J/K/mol]
100 kPa | 119.2
5000 kPa | 118
10000 kPa | 116.8
15000 kPa | 115.5
20000 kPa | 114.9

Cc1ccccc1 [toluene] + CCO
molar heat capacity at constant pressure [J/K/mol], [1]
Settings | x1 = 0.1003 | x1 = 0.2007 | x1 = 0.2999 | x1 = 0.4002 | x1 = 0.5 | x1 = 0.6001 | x1 = 0.7 | x1 = 0.8 | x1 = 0.9001 | x1 = 1
100 kPa | 130.1 | 138.3 | 146.1 | 153.2 | 159.1 | 163.7 | 167.7 | 169.5 | 168.5 | 163.5
5000 kPa | 128.7 | 136.6 | 144.2 | 151.3 | 157.1 | 162 | 165.3 | 167.5 | 167.3 | 161.3
10000 kPa | 127.3 | 135.5 | 143.2 | 150 | 155.7 | 160.2 | 164.1 | 166.3 | 165.9 | 159.9
15000 kPa | 126.1 | 134.4 | 141.9 | 148.5 | 154.3 | 158.6 | 162.6 | 164.9 | 165.2 | 158.9
20000 kPa | 125.1 | 133.6 | 140.9 | 147.5 | 153.4 | 158.1 | 161.8 | 164 | 163.6 | 157.8

CCO [ethanol] + CCCCCCC
[1], x2 = 0
Settings | molar heat capacity at constant pressure [J/K/mol]
100 kPa | 119.2
5000 kPa | 118
10000 kPa | 116.8
15000 kPa | 115.5
20000 kPa | 114.9

CCCCCCC [heptane]
molar heat capacity at constant pressure [J/K/mol], [2]
Settings | 100 kPa | 5000 kPa | 10000 kPa | 15000 kPa | 20000 kPa
273.15 K | 216.2 | 213.1 | 210.9 | 208.1 | 207.2
293.15 K | 224.1 | 223 | 218.2 | 216.8 | 214.4
313.15 K | 233.8 | 230.3 | 226.2 | 223.1 | 221.6
333.15 K | 241.9 | 238.7 | 235 | 232 | 229.3

CCO [ethanol]
molar heat capacity at constant pressure [J/K/mol], [2]
Settings | 100 kPa | 5000 kPa | 10000 kPa | 15000 kPa | 20000 kPa
273.15 K | 103.5 | 103.1 | 102.1 | 101.7 | 100.7
293.15 K | 111.2 | 110.2 | 109 | 108.1 | 107.4
313.15 K | 119.2 | 118 | 116.8 | 115.5 | 114.9
333.15 K | 130 | 129.1 | 127.7 | 126 | 124.7

CCCCCCC [heptane] + CCO
molar heat capacity at constant pressure [J/K/mol], [1]
Settings | x1 = 0.1 | x1 = 0.2001 | x1 = 0.3 | x1 = 0.4001 | x1 = 0.5001 | x1 = 0.6 | x1 = 0.6999 | x1 = 0.7999 | x1 = 0.9 | x1 = 1
100 kPa | 134.2 | 149.4 | 163.6 | 176.8 | 190.9 | 202.9 | 215.3 | 224.9 | 234.8 | 233.8
5000 kPa | 132.5 | 147.1 | 160.8 | 174.2 | 187.6 | 200 | 211.9 | 221.4 | 230.4 | 230.3
10000 kPa | 130.7 | 146.1 | 158.6 | 171.6 | 185 | 196.7 | 209 | 218.7 | 226.9 | 226.2
15000 kPa | 129.5 | 143.6 | 156.7 | 169.4 | 182.5 | 194.8 | 205.9 | 215.9 | 223.8 | 223.1
20000 kPa | 128.4 | 142.4 | 155.3 | 168.3 | 180.9 | 193.1 | 204 | 213.3 | 222.6 | 221.6
